Patent US9440957B2, “Compounds and compositions for modulating EGFR Activity” (Novartis AG, priority 2012, dated 2016)
Like-named read-outs stand apart in the source and are kept apart here.

Key:
EGFR(L858R/T790M) = target: T1, EGFR(L858R/T790M) (Homo sapiens, UniProt P00533, L858R/T790M); assay: EGFR biochemical assay (HTRF), IC50 determinations
T1 construct: purchased from Carna (GST-a.a. 669-1210)
Method in brief: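 HTRF kinase reaction with biotin-TK peptide at room temperature, quenched with EDTA at 60 min and detected with PT66K/SAXL after 1 h. Without preincubation, enzyme starts the reaction with compound, ATP and peptide present. With preincubation, compound, enzyme and peptide sit at room temperature for a set time before ATP is added.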

[1] = target: human EGFR WT (NIH/3T3 cells, EGF-induced) (Homo sapiens, UniProt P00533); assay: EGFR target modulation in engineered NIH/3T3 cell lines (phospho-EGFR Y1068 AlphaLISA), EGFR WT; format: cell-based; details: engineered NIH/3T3 cells, read-out: NIH3T3 IC50 (μM) EGFR (WT)
Method in brief: (§1)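 Engineered NIH/3T3 cells were plated overnight, then exposed to a 12-point 1:3 compound series (from a 10 μM stock) for 3 hours at 37 °C. WT-expressing cells alone were stimulated with 50 ng/ml EGF for 5 minutes before lysis. IC50s came from non-linear fits of AlphaLISA signal.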

[2] = target: human EGFR L858R (NIH/3T3 cells) (Homo sapiens, UniProt P00533, L858R); assay: EGFR target modulation in engineered NIH/3T3 cell lines (phospho-EGFR Y1068 AlphaLISA), EGFR L858R; format: cell-based; details: engineered NIH/3T3 cells, read-out: NIH3T3 IC50 (μM) EGFR (L858R)
Method in brief: as §1

[3] = target: human EGFR L858R/T790M (NIH/3T3 cells) (Homo sapiens, UniProt P00533, L858R/T790M); assay: EGFR target modulation in engineered NIH/3T3 cell lines (phospho-EGFR Y1068 AlphaLISA), EGFR L858R/T790M; format: cell-based; details: engineered NIH/3T3 cells, read-out: NIH3T3 IC50 (μM) EGFR (L858R/T790M)
Method in brief: as §1

H1975 (EGFR L858/T790M) = H1975 (EGFR L858/T790M) (Homo sapiens, UniProt P00533, L858R/T790M); assay: EGFR target modulation in H1975 cell line (phospho-EGFR Y1173 ELISA); format: cell-based
Method in brief: (§2)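 3 h compound exposure of cells in 10% FBS/RPMI, 37 °C; lysis on ice 20 min; lysate captured overnight at 4 °C on anti-EGFR-coated plates; anti-rabbit-HRP, chemiluminescence.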

H3255 (EGFR L858R) = H3255 (EGFR L858R) (Homo sapiens, UniProt P00533, L858R); assay: EGFR target modulation in H3255 cell line (phospho-EGFR Y1173 ELISA); format: cell-based
Method in brief: as §2

HCC827 (Del E746-A750) = HCC827 (Del E746-A750) (Homo sapiens, UniProt P00533, DEL746-750); assay: EGFR target modulation in HCC827 cell line (phospho-EGFR Y1173 ELISA); format: cell-based
Method: EGFR Target Modulation in H1975, H3255 and HCC827 Cell Lines Tissue Culture. Cells were maintained in 10% FBS/RPMI supplemented with 100 μg/ml Penicillin/Streptomycin (Hyclone #SH30236.01). […] The cells were allowed to incubate overnight in a 37° C., 5% CO2 humidified tissue culture incubator. […] The serial diluted compounds were transferred to the plate containing cells by using a 50 nl Pin Head device (Perkin Elmer) and the cells were placed back in the incubator for 3 hours. Phospho-EGFR ([…]) Target Modulation Assay. The media was reduced to 20 ul using a Bio-Tek ELx 405 SelectTM plate washer. […] The plates were shaken at 4° C. for 20 minutes. An aliquot of 25 ul from each well was transferred to pEGFR(Y1173) ELISA plates for analysis. Phospho-EGFR ([…]) ELISA. Solid white high-binding ELISA plates (Greiner #781074) were coated with 5 ug/ml anti-EGFR capture antibody (R&D Systems #AF231) overnight in 50 mM carbonate/bicarbonate pH 9.5 buffer. Plates were blocked with 1% BSA (Sigma #A7030) in PBS for 1 hour at room temperature. Wash steps were carried out with a Bio-Tek ELx405 SelectTM using 4 cycles of 100 ul TBS-T (20 mM Tris, 137 mM NaCl, 0.05% Tween-20) per well. […] Lysis was allowed to occur for 20 minutes on ice. A 25 ul aliquot was added to each well of the blocked ELISA plate and incubated overnight at 4° C. with gentle shaking. […] After washing, 1:2,000 anti-rabbit-HRP (Cell Signaling #7074) in 0.2% BSA/TBS-T was added and incubated for 1 hour at room temperature. Chemiluminescent detection was carried out with SuperSignal ELISA Pico substrate (ThermoScientific #37069). Signal was read on EnVision plate reader using built-in UltraLUM setting. Data Analysis. Control cells treated with EGF were set to 100% maximum response. […] With these parameters, the IC50's for each compound in each cell line was calculated using non-linear curve fitting analysis.

HEKn (EGFR WT) = HEKn (EGFR WT) (Homo sapiens, UniProt P00533); assay: EGFR target modulation in HEKn (EGFR-WT) cell line (phospho-EGFR Y1173 ELISA); format: cell-based; details: value outside parentheses
Method in brief: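 Primary neonatal human keratinocytes (EGFR WT) were exposed to serially diluted compounds for 3 h, then lysed on ice. Phospho-EGFR Y1173 was measured by chemiluminescent sandwich ELISA using anti-EGFR capture.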

[4] = EGFR (L858R/T790M) with 90 min pre-incubation, read-out: IC50 (μM) Column B
[5] = EGFR (L858R/T790M) with no pre-incubation, read-out: IC50 (μM) Column A

Chain of HEKn (EGFR WT) (P00533 25-1210): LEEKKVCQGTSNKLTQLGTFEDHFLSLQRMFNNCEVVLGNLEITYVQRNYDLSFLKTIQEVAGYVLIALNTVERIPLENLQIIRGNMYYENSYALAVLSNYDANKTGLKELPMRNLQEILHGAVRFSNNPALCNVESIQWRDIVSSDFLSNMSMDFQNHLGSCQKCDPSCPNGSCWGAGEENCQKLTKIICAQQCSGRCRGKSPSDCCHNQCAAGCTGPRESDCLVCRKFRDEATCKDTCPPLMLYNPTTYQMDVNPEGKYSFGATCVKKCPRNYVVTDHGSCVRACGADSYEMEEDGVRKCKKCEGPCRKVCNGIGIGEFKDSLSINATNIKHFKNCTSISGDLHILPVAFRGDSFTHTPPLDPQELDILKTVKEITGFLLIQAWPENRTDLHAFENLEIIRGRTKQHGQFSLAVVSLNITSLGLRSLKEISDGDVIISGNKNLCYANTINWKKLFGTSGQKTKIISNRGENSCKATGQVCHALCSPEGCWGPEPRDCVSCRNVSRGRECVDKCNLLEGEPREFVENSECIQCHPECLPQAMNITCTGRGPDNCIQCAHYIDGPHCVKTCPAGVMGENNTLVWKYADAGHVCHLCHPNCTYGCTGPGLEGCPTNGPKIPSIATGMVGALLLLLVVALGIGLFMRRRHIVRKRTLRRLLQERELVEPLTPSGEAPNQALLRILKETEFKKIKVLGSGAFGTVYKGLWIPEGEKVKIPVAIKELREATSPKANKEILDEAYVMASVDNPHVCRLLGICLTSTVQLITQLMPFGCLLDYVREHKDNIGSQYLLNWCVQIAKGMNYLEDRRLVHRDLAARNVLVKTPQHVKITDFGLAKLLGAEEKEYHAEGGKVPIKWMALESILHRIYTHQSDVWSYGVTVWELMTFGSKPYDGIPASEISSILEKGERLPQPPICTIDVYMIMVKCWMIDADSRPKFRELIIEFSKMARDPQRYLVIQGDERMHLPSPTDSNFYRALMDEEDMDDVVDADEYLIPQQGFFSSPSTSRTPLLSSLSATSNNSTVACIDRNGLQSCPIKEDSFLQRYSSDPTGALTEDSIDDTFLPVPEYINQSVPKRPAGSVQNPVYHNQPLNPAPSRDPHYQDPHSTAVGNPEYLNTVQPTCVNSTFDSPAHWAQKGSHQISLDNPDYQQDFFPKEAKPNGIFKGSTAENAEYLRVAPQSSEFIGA
Chain of human EGFR WT (NIH/3T3 cells, EGF-induced) (P00533 25-1210): as above
Chain of human EGFR L858R/T790M (NIH/3T3 cells) (P00533 25-1210 T790M/L858R): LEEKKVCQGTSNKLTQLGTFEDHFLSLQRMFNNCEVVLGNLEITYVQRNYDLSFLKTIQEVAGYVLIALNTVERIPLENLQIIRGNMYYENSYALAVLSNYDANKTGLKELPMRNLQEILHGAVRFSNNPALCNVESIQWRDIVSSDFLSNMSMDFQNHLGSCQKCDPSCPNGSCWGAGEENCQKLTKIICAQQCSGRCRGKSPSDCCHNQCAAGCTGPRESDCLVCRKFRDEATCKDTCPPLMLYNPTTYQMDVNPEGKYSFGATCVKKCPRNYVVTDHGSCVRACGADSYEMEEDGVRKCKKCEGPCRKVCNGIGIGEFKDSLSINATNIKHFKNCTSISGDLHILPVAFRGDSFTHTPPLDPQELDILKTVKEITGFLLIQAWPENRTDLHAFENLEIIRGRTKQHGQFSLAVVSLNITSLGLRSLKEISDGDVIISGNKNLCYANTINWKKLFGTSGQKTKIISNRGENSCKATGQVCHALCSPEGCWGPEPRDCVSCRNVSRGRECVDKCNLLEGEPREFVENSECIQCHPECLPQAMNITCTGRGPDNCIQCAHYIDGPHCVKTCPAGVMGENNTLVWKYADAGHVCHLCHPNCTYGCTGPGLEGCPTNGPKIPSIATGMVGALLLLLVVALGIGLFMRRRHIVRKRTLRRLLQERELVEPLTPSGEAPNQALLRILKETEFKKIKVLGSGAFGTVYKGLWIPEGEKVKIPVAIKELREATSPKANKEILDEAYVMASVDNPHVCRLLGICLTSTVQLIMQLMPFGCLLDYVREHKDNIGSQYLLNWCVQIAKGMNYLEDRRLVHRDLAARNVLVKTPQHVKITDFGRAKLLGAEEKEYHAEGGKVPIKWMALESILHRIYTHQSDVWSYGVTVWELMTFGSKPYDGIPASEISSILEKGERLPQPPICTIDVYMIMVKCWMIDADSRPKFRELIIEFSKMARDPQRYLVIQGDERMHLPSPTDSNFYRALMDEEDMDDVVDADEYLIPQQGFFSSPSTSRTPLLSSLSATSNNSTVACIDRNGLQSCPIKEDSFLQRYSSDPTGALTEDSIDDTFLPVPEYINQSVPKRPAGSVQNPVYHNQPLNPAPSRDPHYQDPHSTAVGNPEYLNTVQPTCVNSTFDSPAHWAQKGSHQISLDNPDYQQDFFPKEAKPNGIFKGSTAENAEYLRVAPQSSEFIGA
Chain of H1975 (EGFR L858/T790M) (P00533 25-1210 T790M/L858R): as above

| Compound | IC50 (EGFR(L858R/T790M); [4]) | IC50 (EGFR(L858R/T790M); [5]) | IC50 [1] | IC50 [2] | IC50 [3] | IC50 (H1975 (EGFR L858/T790M)) | IC50 (H3255 (EGFR L858R)) | IC50 (HCC827 (Del E746-A750)) | IC50 (HEKn (EGFR WT)) |
| --- | --- | --- | --- | --- | --- | --- | --- | --- | --- |
| C=CC(=O)N1CCCC[C@@H](n2c(NC(=O)c3ccnc(C)c3)nc3cc(CN4CCC(F)(F)C4)cc(C)c32)C1 [Example 17-151] | < 0.001 µM | 0.001 µM | 0.014 µM | < 0.001 µM | 0.001 µM | < 1 nM | 1 nM | < 1 nM | 36 nM |
| C=CC(=O)N1CCCCC(n2c(NC(=O)c3cccc(C(F)(F)F)c3)nc3cc(C)ccc32)C1 (stereo not drawn) [Example 17-1] | < 0.001 µM | 0.012 µM | > 10 µM | 0.081 µM | 0.011 µM | 5 nM | 33 nM | 14 nM | 730 nM |
| CO[C@@H]1CCN(C/C=C/C(=O)N2CCCC[C@@H](n3c(NC(=O)c4ccnc(C)c4)nc4cccc(Cl)c43)C2)C1 [Example 3-4] | < 0.001 µM | 0.005 µM | 0.058 µM | 0.003 µM | 0.005 µM | 6 nM | 7 nM | < 1 nM | 320 nM |
| C=CC(=O)N1CCC[C@@H](n2c(NC(=O)c3cccc(C(F)(F)F)c3)nc3cc(COCC)ccc32)C1 [Example 17-123] | 0.004 µM | 0.115 µM | > 10 µM | 0.174 µM | 0.017 µM | 22 nM | 199 nM | 291 nM | > 10000 nM |
| CO[C@H]1CCN(C/C=C/C(=O)N2CCCC[C@@H](n3c(NC(=O)c4ccnc(C)c4)nc4cccc(Cl)c43)C2)C1 [Example 3-5] | < 0.001 µM | 0.007 µM | 0.259 µM | 0.006 µM | 0.006 µM | 8 nM | 12 nM | < 1 nM | 580 nM |
| C=CC(=O)N1CCCC[C@@H](n2c(NC(=O)c3ccnc(C)c3)nc3cc(CN4CCS(=O)(=O)CC4)cc(C)c32)C1 [Example 17-155] | < 0.001 µM | 0.002 µM | 0.065 µM | 0.002 µM | 0.002 µM | 2 nM | 2 nM | < 1 nM | 61 nM |
| C=CC(=O)N1CCCC[C@@H](n2c(NC(=O)c3ccnc(C)c3)nc3cc(CN4CCCCC4)cc(C)c32)C1 [Example 17-144] | < 0.001 µM | 0.002 µM | 0.029 µM | < 0.001 µM | < 0.001 µM | < 1 nM | 1 nM | < 1 nM | 72 nM |
| C=CC(=O)N1CCCC[C@@H](n2c(NC(=O)c3ccnc(C)c3)nc3cc(CN4CCC4)cc(C)c32)C1 [Example 17-145] | < 0.001 µM | 0.001 µM | 0.026 µM | < 0.001 µM | 0.001 µM | 1 nM | 2 nM | < 1 nM | 95 nM |
| C=CC(=O)N1CCC[C@@H](n2c(NC(=O)c3cccc(C(F)(F)F)c3)nc3cccc(C)c32)C1 [Example 17-106] | 0.002 µM | 0.038 µM | > 10 µM | 0.124 µM | 0.007 µM | 9 nM | 83 nM | 153 nM | > 10000 nM |
| Cc1cccc2nc(NC(=O)c3ccnc(OC(F)F)c3)n([C@@H]3CCCCN(C(=O)/C=C/CN(C)C)C3)c12 [Example 17-103] | < 0.001 µM | < 0.001 µM | 0.019 µM | < 0.001 µM | < 0.001 µM | 1 nM | 2 nM | < 1 nM | 98 nM |
| Cc1cc(C(=O)Nc2nc3cccc(Cl)c3n2[C@@H]2CCCCN(C(=O)/C=C/CN3CC(F)(F)C3)C2)ccn1 [Example 3-15] | 0.005 µM | 0.084 µM | 7.3 µM | 0.111 µM | 0.148 µM | 86 nM | 90 nM | 40 nM | 4500 nM |
| Cc1cc(C(=O)Nc2nc3cccc(Cl)c3n2[C@@H]2CCCCN(C(=O)/C=C/CN(C)C)C2)cc(C)n1 [Example 6, (R,E)-N-(7-chloro-1-(1-(4-(dimethylamino)but-2-enoyl)azepan-3-yl)-1H-benzo[d]imidazol-2-yl)-2,6-dimethylisonicotinamide] | < 0.001 µM | 0.01 µM | 0.34 µM | 0.004 µM | 0.002 µM | 16 nM | 34 nM | 7 nM | 1520 nM |
| C=CC(=O)N1CCC[C@@H](n2c(NC(=O)c3cccc(C(F)(F)F)c3)nc3cc(CN(C)C(C)=O)ccc32)C1 [Example 17-119] | 0.008 µM | 0.062 µM | 5 µM | 0.051 µM | 0.008 µM | 10 nM | 118 nM | 71 nM | > 6900 nM |
